In PMC3528769, “Comparative Study of the Fatty Acid Binding Process of a New FABP from Cherax quadricarinatus by Fluorescence Intensity, Lifetime and Anisotropy” (PLoS ONE, 2012):

Assays:
Type in all cases: binding
[1] = target: T1, Cq-FABP (Cherax quadricarinatus, UniProt L0I6Z9); experiment: ANS fluorescence intensity titration and equilibrium displacement of ANS by fatty acids; conditions: calculated from equilibrium displacement experiments using the fluorescence intensity of ANS (Eq. 1); read-out: Kd,FA
T1 sequence (L0I6Z9 entry or part of it): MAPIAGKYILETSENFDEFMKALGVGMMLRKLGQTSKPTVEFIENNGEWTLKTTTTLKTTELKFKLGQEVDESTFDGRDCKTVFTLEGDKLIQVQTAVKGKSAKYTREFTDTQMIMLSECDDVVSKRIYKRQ
Description: (§1) Fluorescence emission spectra were measured at 25°C on a Cary-Eclipse spectrofluorimeter (Varian, CA, USA) equipped with a thermostated cell holder, using solutions (70 µl) placed in microcuvettes (pathlength, 0.3 cm). The binding of non-fluorescent fatty acids (PA, OA, LA, EPA and DHA) to Cq-FABP was measured indirectly by equilibrium displacement experiments using ANS as a fluorescent probe, either by measuring the fluorescence emission of ANS or by measuring the FRET between tryptophan and ANS, resulting in the quenching of donor fluorescence. The excitation wavelength was then set at 296 or 350 nm for tryptophan or ANS, respectively; the slit widths and PMT voltage were adjusted to optimize the fluorescence signal at 25°C. For titration experiments, the fluorescence emission spectrum of tryptophan or ANS was measured and the integrated fluorescence signal of tryptophan (315–360 nm) or ANS (440–600 nm) was calculated. For samples containing high concentrations of ANS, the inner-filter effect was not negligible and was corrected. UV-visible absorption spectra were carried out on a Uvikon XL spectrophotometer.
The equilibrium dissociation constant (Kd,FA) relative to the binding of fatty acids (FA) to Cq-FABP was determined by competition experiments using ANS displacement and linear regression of the following relationship: [drawing 1] (1) where Kd,ANS is the dissociation constant relative to the binding of ANS to the fatty acid binding site, Kd ^app ,ANS is the apparent dissociation constant of ANS obtained in the presence of a given fatty acid concentration.

[2] = target: T1, Cq-FABP; experiment: Steady-state FRET between the single Trp (W49) and ANS, Trp quenching and recovery by PA; conditions: read-out: Kd,PA
Description: as §1

[3] = target: T1, Cq-FABP; experiment: cis-Parinaric acid fluorescence intensity titration and competitive displacement; conditions: calculated from the IC50 values (Eq. 2) using the fluorescence intensity of cis-parinaric acid; 7 µM CPA, 5 µM Cq-FABP; read-out: Kd,FA
Excerpt: Cis-parinaric acid and DAUDA were characterized by fluorescence emission in the 380–500 nm region (λmax,em: 410 nm) and in the 480–650 nm region (λmax,em: 540 nm), respectively (excitation wavelengths were set at 320 or 335 nm for cis-parinaric acid or DAUDA, respectively). The fluorescence intensity enhancement upon binding to Cq-FABP was monitored on a Cary-Eclipse spectrofluorimeter as indicated above. All the fluorescence emission intensities were corrected for the inner-filter effect. The emission intensity of a given fluorophore in the presence of Cq-FABP was also systematically corrected for the emission intensity of the free fluorophore. The calculation of Kd,FA was performed by measuring the IC50 value (inhibition concentration 50%) characterizing each non-fluorescent FA. As DAUDA poorly binds to Cq-FABP (see results section), only cis-parinaric acid (CPA) was used for measuring IC50 values. Titration and equilibrium displacement experiments using CPA were performed in buffer C (supplemented with 10% DMSO (v/v)). For the determination of IC50 values, the number of complexes corresponding to [CPA] = 7 µM and [Cq-FABP] = 5 µM was varied by increasing the concentration of non-fluorescent FA. The IC50 value corresponds to the concentration of non-fluorescent FA that displaces 50% of CPA from the fatty acid binding site of Cq-FABP and is related to Kd,FA through the Cheng-Prusoff relationship: [drawing 2] (2)

[4] = target: T1, Cq-FABP; experiment: BODIPY-C16 steady-state fluorescence anisotropy titration and competition; conditions: for Kd: read-out: Kd,FA
Description: The binding of 4,4-difluoro-5, 7-dimethyl-4-bora-3a, 4a-diaza-s-indacene-3-hexadecanoic acid (BODIPY-C16) to Cq-FABP was investigated by measuring the steady-state fluorescence anisotropy parameter using a Beacon instrument (PanVera, Madison, USA), in a cell thermostatically held at 25°C. The excitation and emission bandpass filters were centered at 488 nm (±6 nm) and 525 nm (±15 nm), respectively. Titration experiments were performed in buffer C (supplemented with 10% DMSO (v/v)) by maintening a constant concentration of BODIPY-C16 (200 nM) and by adding increasing concentrations of Cq-FABP. Using a vertical direction for the polarized excitation source, the steady-state fluorescence anisotropy (r) was calculated according to: [drawing 3] (3) where IV and IH correspond to the parallel (vertical) and perpendicular (horizontal) fluorescence emission intensity components, respectively. The fraction of BODIPY-C16/Cq-FABP complexes (i.e. the fraction of BODIPY-C16 bound to Cq-FABP), fb, was calculated using the following relationship: [drawing 4] (4) where r is the measured fluorescence anisotropy value, rf and rb correspond to the fluorescence anisotropy values of free BODIPY-C16 (ligand in the free state, measured in the absence of Cq-FABP) and Cq-FABP-bound BODIPY-C16 (ligand in the bound state, corresponding to the maximum anisotropy value found at the plateau), respectively. […] The Kd characterizing the BODIPY-C16/Cq-FABP complex (Kd,C16) was calculated by fitting the plot of fb versus [Cq-FABP] using the Graphpad Prism 5.0 software.
The fluorescence anisotropy-based assay was also used in competition experiments to calculate the Kd values (Kd,FA) characterizing non-fluorescent fatty acids. The measurement of the apparent Kd value characterizing the BODIPY-C16/Cq-FABP complex (Kd ^app ,C16) under different concentration conditions for the non-fluorescent FA allows the calculation of Kd,FA according to: [drawing 5] (5) where Kd,C16 corresponds to the Kd characterizing the BODIPY-C16/Cq-FABP complex (in the absence of any non-fluorescent FA) and Kd ^app ,C16 corresponds to the apparent dissociation constant obtained for a given concentration of non-fluorescent FA. The calculation of Kd,FA was also performed in an independent manner by measuring the IC50 value characterizing each non-fluorescent FA. In this approach, the number of complexes corresponding to [C16] = 200 nM and [Cq-FABP] = 5 µM was varied by increasing the concentration of non-fluorescent FA. The IC50 value corresponds to the concentration of non-fluorescent FA that displaces 50% of C16 from the fatty acid binding site of Cq-FABP and is related to Kd,FA through the Cheng-Prusoff relationship: [drawing 6] (6)

Kd [1]: 1.1 ± 0.3 µM
Kd ([2]; FRET efficiency parameter, from slope of Kd app,PA versus [ANS] (Fig. 5B), average Kd,ANS 27.85 µM): 0.83 µM
Kd ([2]; FRET efficiency parameter, y-intercept of Kd app,PA versus [ANS] (Fig. 5B)): 1.9 µM
Kd ([2]; Trp fluorescence intensity parameter, from slope of Kd app,PA versus [ANS] (Fig. 5A), average Kd,ANS 27.85 µM): 1.29 µM
Kd ([2]; Trp fluorescence intensity parameter, y-intercept of Kd app,PA versus [ANS] (Fig. 5A)): 1.47 µM
Kd [3]: 1.8 ± 0.4 µM
IC50 ([4]; 200 nM BODIPY-C16, 5 µM Cq-FABP, read-out: IC50 (displaces 50% of BODIPY-C16 from the fatty acid binding site)): 1.17 µM
Kd ([4]; calculated from the IC50 values, using Eq. 6, 200 nM BODIPY-C16, 5 µM Cq-FABP): 1.15 ± 0.2 µM
Kd ([4]; calculated from the Kd app,C16 values, using Eq. 5, 200 nM BODIPY-C16): 1.6 ± 0.3 µM
Compound: CCCCCCCCCCCCCCCC(=O)O [PA, Palmitic acid]
